Test system: 126254-015-R-J1-PDC complex spheroid growth, % test/control
Test: Anticancer human tumor 126254-015-R-J1-PDC patient-derived soft tissue sarcoma cell line growth inhibition [Asc]
Settings: for IC50: curve of first compound; for viability, T/C: stronger effect = lower value
Summary of the method: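 Complex solid-tumor spheroids incorporating human endothelial and mesenchymal stem cells received single agents or combinations over half-log dilution ranges anchored to clinical Cmax.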

[1] = second compound 0.1 µM, first compound 0.0316 µM
[2] = second compound 0.1 µM, first compound 0.1 µM
[3] = second compound 0.1 µM, first compound 0.316 µM
[4] = second compound 0.1 µM, first compound 1 µM
[5] = second compound 0.1 µM, first compound 3.16 µM
[6] = second compound 0.1 µM, first compound 10 µM
[7] = second compound 0.316 µM, first compound 0.0316 µM
[8] = second compound 0.316 µM, first compound 0.1 µM
[9] = second compound 0.316 µM, first compound 0.316 µM
[10] = second compound 0.316 µM, first compound 1 µM
[11] = second compound 0.316 µM, first compound 3.16 µM
[12] = second compound 0.316 µM, first compound 10 µM
[13] = second compound 1 µM, first compound 0.0316 µM
[14] = second compound 1 µM, first compound 0.1 µM
[15] = second compound 1 µM, first compound 0.316 µM
[16] = second compound 1 µM, first compound 1 µM
[17] = second compound 1 µM, first compound 3.16 µM
[18] = second compound 1 µM, first compound 10 µM
[19] = second compound 3.16 µM, first compound 0.0316 µM
[20] = second compound 3.16 µM, first compound 0.1 µM
[21] = second compound 3.16 µM, first compound 0.316 µM
[22] = second compound 3.16 µM, first compound 1 µM
[23] = second compound 3.16 µM, first compound 3.16 µM
[24] = second compound 3.16 µM, first compound 10 µM
[25] = second compound 10 µM, first compound 0.0316 µM
[26] = second compound 10 µM, first compound 0.1 µM
[27] = second compound 10 µM, first compound 0.316 µM
[28] = second compound 10 µM, first compound 1 µM
[29] = second compound 10 µM, first compound 3.16 µM
[30] = second compound 10 µM, first compound 10 µM
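Also: spheroids exposed to compound for seven days.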
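For viability, T/C in this document: 100% = DMSO vehicle control wells.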

Q: For C=C(F)C(=O)N1CCN(c2nc(OCC3CCCN3C)nc3c2CCN(c2cccc4cccc(Cl)c24)C3)CC1CC#N (stereo not given) + Cc1c(S(C)(=O)=O)c(-c2cc(F)cc(N3CCN(c4ccc(NS(=O)(=O)c5ccc(NC(CCN6CCC(C(=O)OCCCP(=O)(O)O)CC6)CSc6ccccc6)c(S(=O)(=O)C(F)(F)F)c5)cc4)CC3)c2)c(-c2ccc(Cl)cc2)n1C(C)C, which IC50 (second compound 0.1 µM) is on record?
A: 1.86 µM

Q: And the IC50 (second compound 0.316 µM)?
A: 1.39 µM

Q: And the IC50 (second compound 1 µM)?
A: 1.36 µM

Q: And the IC50 (second compound 3.16 µM)?
A: 0.772 µM

Q: What about the IC50 (second compound 10 µM) of the same compound?
A: 1.39 µM

Q: What about the viability, T/C [1] of the same compound?
A: 87.2%

Q: And the viability, T/C [2]?
A: 97.2%

Q: What about the viability, T/C [3] of the same compound?
A: 89.6%

Q: And the viability, T/C [4]?
A: 76.5%

Q: And the viability, T/C [5]?
A: 27.4%

Q: And the viability, T/C [6]?
A: 0.18%

Q: And the viability, T/C [7]?
A: 83%

Q: What about the viability, T/C [8] of the same compound?
A: 91.2%

Q: What about the viability, T/C [9] of the same compound?
A: 80.2%

Q: What about the viability, T/C [10] of the same compound?
A: 61%

Q: And the viability, T/C [11]?
A: 22.8%

Q: And the viability, T/C [12]?
A: 0.13%

Q: And the viability, T/C [13]?
A: 83.5%

Q: What about the viability, T/C [14] of the same compound?
A: 66.3%

Q: What about the viability, T/C [15] of the same compound?
A: 76.3%

Q: And the viability, T/C [16]?
A: 57.7%

Q: What about the viability, T/C [17] of the same compound?
A: 27.2%

Q: What about the viability, T/C [18] of the same compound?
A: 0.14%

Q: And the viability, T/C [19]?
A: 88.3%

Q: What about the viability, T/C [20] of the same compound?
A: 75%

Q: And the viability, T/C [21]?
A: 61.5%

Q: And the viability, T/C [22]?
A: 51.7%

Q: And the viability, T/C [23]?
A: 20.5%

Q: What about the viability, T/C [24] of the same compound?
A: 0.13%

Q: And the viability, T/C [25]?
A: 79.2%

Q: And the viability, T/C [26]?
A: 77.5%

Q: What about the viability, T/C [27] of the same compound?
A: 77.8%

Q: And the viability, T/C [28]?
A: 62.4%

Q: What about the viability, T/C [29] of the same compound?
A: 18.5%

Q: And the viability, T/C [30]?
A: 0.2%

Q: How did the IC50 (second compound 0.1 µM) turn out when C=CC(=O)N1CCN(c2nc(=O)n(-c3c(C)ccnc3C(C)C)c3nc(-c4c(O)cccc4F)c(F)cc23)C(C)C1 (stereo not given) + Cc1c(S(C)(=O)=O)c(-c2cc(F)cc(N3CCN(c4ccc(NS(=O)(=O)c5ccc(NC(CCN6CCC(C(=O)OCCCP(=O)(O)O)CC6)CSc6ccccc6)c(S(=O)(=O)C(F)(F)F)c5)cc4)CC3)c2)c(-c2ccc(Cl)cc2)n1C(C)C was run?
A: > 10 µM

Q: And the IC50 (second compound 0.316 µM)?
A: > 10 µM

Q: What about the IC50 (second compound 1 µM) of the same compound?
A: > 10 µM

Q: And the IC50 (second compound 3.16 µM)?
A: > 10 µM

Q: And the IC50 (second compound 10 µM)?
A: > 10 µM

Q: What about the viability, T/C [1] of the same compound?
A: 89.8%

Q: What about the viability, T/C [2] of the same compound?
A: 89.4%

Q: And the viability, T/C [3]?
A: 95.8%

Q: And the viability, T/C [4]?
A: 103%

Q: And the viability, T/C [5]?
A: 101%

Q: What about the viability, T/C [6] of the same compound?
A: 76.3%

Q: And the viability, T/C [7]?
A: 90.5%

Q: And the viability, T/C [8]?
A: 86.2%

Q: What about the viability, T/C [9] of the same compound?
A: 96.5%

Q: And the viability, T/C [10]?
A: 91.2%

Q: What about the viability, T/C [11] of the same compound?
A: 107%

Q: And the viability, T/C [12]?
A: 84.1%

Q: And the viability, T/C [13]?
A: 93.9%

Q: What about the viability, T/C [14] of the same compound?
A: 89%

Q: And the viability, T/C [15]?
A: 91.2%

Q: And the viability, T/C [16]?
A: 93%

Q: And the viability, T/C [17]?
A: 92.8%

Q: What about the viability, T/C [18] of the same compound?
A: 77.6%

Q: What about the viability, T/C [19] of the same compound?
A: 83.8%

Q: And the viability, T/C [20]?
A: 91.5%

Q: And the viability, T/C [21]?
A: 90.9%

Q: And the viability, T/C [22]?
A: 93.2%

Q: What about the viability, T/C [23] of the same compound?
A: 101%

Q: What about the viability, T/C [24] of the same compound?
A: 78.1%

Q: And the viability, T/C [25]?
A: 91.3%

Q: What about the viability, T/C [26] of the same compound?
A: 94.1%

Q: And the viability, T/C [27]?
A: 105%

Q: What about the viability, T/C [28] of the same compound?
A: 87%

Q: And the viability, T/C [29]?
A: 91.7%

Q: And the viability, T/C [30]?
A: 81.6%

— PubChem BioAssay AID1963429 (Molecular Pharmacology Branch, DTP, NCI, 2024)
